Results reported in PMC10465233, “Lys-urea-Aad, Lys-urea-Cmc and Lys-urea-Cms as potential pharmacophores for the design of PSMA-targeted radioligands to reduce off-target uptake in kidneys and salivary glands” (Theranostics, 2023).
Read-outs that look alike come from different tables or passages of the source.

Experiments:
[1] = test system: LNCaP tumor-bearing mice; assay: Ex vivo biodistribution in LNCaP tumor-bearing mice; design: species or system mouse
Method: (§1) Imaging, biodistribution and radioligand therapy experiments were performed following previously published procedures using male NOD-scid IL2Rg^null (NSG) or NOD.Cg-Rag1^tm1MomIl2rg^tm1Wjl/SzJ (NRG) mice [10]-[12],[14]-[15]. The experiments were conducted according to the guidelines established by the Canadian Council on Animal Care and approved by Animal Ethics Committee of the University of British Columbia. The mice were briefly sedated by inhalation of 2% isoflurane in oxygen, and implanted subcutaneously with 1×10^7 LNCaP cells behind the left shoulder. The mice were imaged or used in biodistribution studies when the tumor grew to 5-8 mm in diameter over a period of 4-5 weeks.
For biodistribution studies, the mice were injected with the radioligand (2-4 MBq) as described above. For blocking, the mice were co-injected with nonradioactive DCFPyL (0.5 mg). At predetermined time points, the mice were sedated by isoflurane inhalation and euthanized by CO2 inhalation. Blood was withdrawn by cardiac puncture, and organs/tissues of interest were collected, weighed and counted using an automatic gamma counter (Tables S4-S7).

[2] = test system: LNCaP tumor-bearing mice; assay: Radioligand therapy study in LNCaP tumor-bearing mice; assay type: in vivo, mouse; details: 37 MBq injected
Method: as §1
For radiotherapy study, tumor-bearing mice were injected with saline (the control group), [^177Lu]Lu-PSMA-617 (37 MBq) or [^177Lu]-HTK03170 (37, 18.5 and 9.3 MBq) (n = 7-8 per treatment group). Tumor size and body weight were measured twice a week from the date of injection (Day 0) until completion of the study (Day 180). Endpoint criteria were defined as > 20% weight loss, tumor volume > 1000 mm^3, or active ulceration of the tumor.

[3] = design: method as in earlier work; details: cited from earlier work

## COc1ccc(CCCC(=O)NCC(=O)N[C@@H](CCCCNC(=O)CN2CCN(CC(=O)[O-])CCN(CC(=O)[O-])CCN(CC(=O)[O-])CC2)C(=O)NC[C@H]2CC[C@H](C(=O)N[C@@H](Cc3c4ccccc4cc4ccccc34)C(=O)NCCCC[C@H](NC(=O)N[C@@H](CSCC(=O)O)C(=O)O)C(=O)O)CC2)cc1.[177Lu+3] [[^177Lu]Lu-HTK04048]
[1]; 1 h post-injection
  Adrenal glands uptake: 4.43 ± 1.11 %ID/g
  Blood uptake: 19.8 ± 3.38 %ID/g
  Blood:Salivary gland uptake ratio: 6.78 ± 0.76
  Bone uptake: 1.10 ± 0.16 %ID/g
  Brain uptake: 0.29 ± 0.03 %ID/g
  Fat uptake: 1.56 ± 0.45 %ID/g
  Heart uptake: 4.74 ± 0.60 %ID/g
  Intestines uptake: 1.38 ± 0.22 %ID/g
  Kidneys uptake: 17.4 ± 4.32 %ID/g
  Lacrimal glands uptake: 0.42 ± 0.12 %ID/g
  Liver uptake: 3.94 ± 0.69 %ID/g
  Lungs uptake: 9.52 ± 1.44 %ID/g
  Muscle uptake: 1.54 ± 0.20 %ID/g
  Pancreas uptake: 1.77 ± 0.17 %ID/g
  Salivary glands uptake: 2.92 ± 0.36 %ID/g
  Spleen uptake: 2.57 ± 0.48 %ID/g
  Stomach uptake: 0.75 ± 0.11 %ID/g
  Testes uptake: 2.60 ± 0.62 %ID/g
  Thyroid uptake: 3.97 ± 0.47 %ID/g
  Tumor uptake: 16.5 ± 5.48 %ID/g
  Tumor:Blood uptake ratio: 0.84 ± 0.22
  Tumor:Kidney uptake ratio: 0.99 ± 0.34
  Tumor:Muscle uptake ratio: 10.7 ± 2.87
  Tumor:Salivary gland uptake ratio: 5.64 ± 1.51
[1]; 4 h post-injection
  Adrenal glands uptake: 2.17 ± 0.21 %ID/g
  Blood uptake: 11.7 ± 1.39 %ID/g
  Blood:Salivary gland uptake ratio: 6.12 ± 0.58
  Bone uptake: 0.69 ± 0.11 %ID/g
  Brain uptake: 0.18 ± 0.01 %ID/g
  Fat uptake: 0.94 ± 0.13 %ID/g
  Heart uptake: 2.87 ± 0.30 %ID/g
  Intestines uptake: 1.00 ± 0.08 %ID/g
  Kidneys uptake: 12.5 ± 1.35 %ID/g
  Lacrimal glands uptake: 0.54 ± 0.52 %ID/g
  Liver uptake: 2.28 ± 0.46 %ID/g
  Lungs uptake: 5.92 ± 0.79 %ID/g
  Muscle uptake: 0.96 ± 0.09 %ID/g
  Pancreas uptake: 1.15 ± 0.14 %ID/g
  Salivary glands uptake: 1.91 ± 0.20 %ID/g
  Spleen uptake: 1.96 ± 0.39 %ID/g
  Stomach uptake: 0.71 ± 0.13 %ID/g
  Testes uptake: 2.72 ± 0.34 %ID/g
  Thyroid uptake: 2.68 ± 0.23 %ID/g
  Tumor uptake: 39.4 ± 22.4 %ID/g
  Tumor:Blood uptake ratio: 3.49 ± 2.31
  Tumor:Kidney uptake ratio: 3.27 ± 2.16
  Tumor:Muscle uptake ratio: 42.2 ± 27.3
  Tumor:Salivary gland uptake ratio: 20.9 ± 11.9
[1]; 24 h post-injection
  Adrenal glands uptake: 0.67 ± 0.26 %ID/g
  Blood uptake: 0.62 ± 0.16 %ID/g
  Blood:Salivary gland uptake ratio: 1.61 ± 0.40
  Bone uptake: 0.11 ± 0.02 %ID/g
  Brain uptake: 0.03 ± 0.00 %ID/g
  Fat uptake: 0.15 ± 0.05 %ID/g
  Heart uptake: 0.34 ± 0.05 %ID/g
  Intestines uptake: 0.46 ± 0.31 %ID/g
  Kidneys uptake: 5.68 ± 1.28 %ID/g
  Lacrimal glands uptake: 0.06 ± 0.01 %ID/g
  Liver uptake: 0.77 ± 0.52 %ID/g
  Lungs uptake: 1.05 ± 0.36 %ID/g
  Muscle uptake: 0.11 ± 0.02 %ID/g
  Pancreas uptake: 0.15 ± 0.03 %ID/g
  Salivary glands uptake: 0.39 ± 0.08 %ID/g
  Spleen uptake: 0.64 ± 0.10 %ID/g
  Stomach uptake: 0.83 ± 0.66 %ID/g
  Testes uptake: 0.67 ± 0.24 %ID/g
  Thyroid uptake: 0.53 ± 0.07 %ID/g
  Tumor uptake: 65.3 ± 19.6 %ID/g
  Tumor:Blood uptake ratio: 113 ± 44.5
  Tumor:Kidney uptake ratio: 11.5 ± 2.22
  Tumor:Muscle uptake ratio: 594 ± 177
  Tumor:Salivary gland uptake ratio: 175 ± 58.1
[1]; 72 h post-injection
  Adrenal glands uptake: 0.33 ± 0.06 %ID/g
  Blood uptake: 0.08 ± 0.06 %ID/g
  Blood:Salivary gland uptake ratio: 0.43 ± 0.28
  Bone uptake: 0.06 ± 0.02 %ID/g
  Brain uptake: 0.01 ± 0.00 %ID/g
  Fat uptake: 0.07 ± 0.03 %ID/g
  Heart uptake: 0.14 ± 0.03 %ID/g
  Intestines uptake: 0.13 ± 0.08 %ID/g
  Kidneys uptake: 2.19 ± 0.21 %ID/g
  Lacrimal glands uptake: 0.01 ± 0.01 %ID/g
  Liver uptake: 0.25 ± 0.02 %ID/g
  Lungs uptake: 0.26 ± 0.08 %ID/g
  Muscle uptake: 0.03 ± 0.01 %ID/g
  Pancreas uptake: 0.06 ± 0.01 %ID/g
  Salivary glands uptake: 0.18 ± 0.03 %ID/g
  Spleen uptake: 0.54 ± 0.14 %ID/g
  Stomach uptake: 0.20 ± 0.17 %ID/g
  Testes uptake: 0.35 ± 0.05 %ID/g
  Thyroid uptake: 0.28 ± 0.05 %ID/g
  Tumor uptake: 64.1 ± 15.0 %ID/g
  Tumor:Blood uptake ratio: 1493 ± 1213
  Tumor:Kidney uptake ratio: 29.2 ± 6.22
  Tumor:Muscle uptake ratio: 2043 ± 734
  Tumor:Salivary gland uptake ratio: 362 ± 111
[1]; 120 h post-injection
  Adrenal glands uptake: 0.30 ± 0.14 %ID/g
  Blood uptake: 0.04 ± 0.03 %ID/g
  Blood:Salivary gland uptake ratio: 0.22 ± 0.13
  Bone uptake: 0.05 ± 0.02 %ID/g
  Brain uptake: 0.01 ± 0.00 %ID/g
  Fat uptake: 0.05 ± 0.03 %ID/g
  Heart uptake: 0.08 ± 0.02 %ID/g
  Intestines uptake: 0.10 ± 0.10 %ID/g
  Kidneys uptake: 1.43 ± 0.48 %ID/g
  Lacrimal glands uptake: 0.01 ± 0.01 %ID/g
  Liver uptake: 0.18 ± 0.07 %ID/g
  Lungs uptake: 0.12 ± 0.05 %ID/g
  Muscle uptake: 0.02 ± 0.01 %ID/g
  Pancreas uptake: 0.05 ± 0.03 %ID/g
  Salivary glands uptake: 0.13 ± 0.03 %ID/g
  Spleen uptake: 0.55 ± 0.27 %ID/g
  Stomach uptake: 0.04 ± 0.02 %ID/g
  Testes uptake: 0.22 ± 0.09 %ID/g
  Thyroid uptake: 0.17 ± 0.02 %ID/g
  Tumor uptake: 65.7 ± 19.1 %ID/g
  Tumor:Blood uptake ratio: 4346 ± 4168
  Tumor:Kidney uptake ratio: 52.1 ± 16.3
  Tumor:Muscle uptake ratio: 3358 ± 2122
  Tumor:Salivary gland uptake ratio: 604 ± 226
[1]; mouse, in vivo
  Peaked tumor uptake relative to ^68Ga-labeled non-albumin-binder analog: ~ 3 fold
[1]; peak over 1-120 h post-injection
  Peaked average tumor uptake: ~ 60 %ID/g
[1]; post-injection, listed as 177Lu-labeled HTK04048
  Time of peak tumor uptake: 4 to 24 h

## O=C([O-])CN1CCN(CC(=O)[O-])CCN(CC(=O)NCC2CCC(C(=O)NC(Cc3ccc4ccccc4c3)C(=O)NCCCCC(NC(=O)NC(CCC(=O)O)C(=O)O)C(=O)O)CC2)CCN(CC(=O)[O-])CC1.[177Lu+3] (stereo not drawn) [[^177Lu]Lu-PSMA-617]
[2]
  Median survival: 63 days
[3]; source organ Brain
  Kinetics value: 6.64E-03 MBq-h/MBq
[3]; source organ Heart
  Kinetics value: 3.28E-03 MBq-h/MBq
[3]; source organ Kidneys
  Kinetics value: 8.23E-01 MBq-h/MBq
[3]; source organ Large intestine contents
  Kinetics value: 8.80E-03 MBq-h/MBq
[3]; source organ Liver
  Kinetics value: 6.38E-02 MBq-h/MBq
[3]; source organ Lungs
  Kinetics value: 4.85E-03 MBq-h/MBq
[3]; source organ Pancreas
  Kinetics value: 4.76E-03 MBq-h/MBq
[3]; source organ Remainder of the body
  Kinetics value: 1.68E-01 MBq-h/MBq
[3]; source organ Small intestine
  Kinetics value: 2.63E-02 MBq-h/MBq
[3]; source organ Spleen
  Kinetics value: 1.41E-02 MBq-h/MBq
[3]; source organ Stomach
  Kinetics value: 2.34E-04 MBq-h/MBq
[3]; source organ Testes
  Kinetics value: 4.23E-03 MBq-h/MBq
[3]; source organ Thyroid
  Kinetics value: 4.01E-04 MBq-h/MBq
[3]; source organ Urinary bladder
  Kinetics value: 8.04E-01 MBq-h/MBq
